Experimental data: ChEMBL document CHEMBL4823300, “Design, synthesis and anticancer activity of sulfenylated imidazo-fused heterocycles” (Bioorg Med Chem Lett, 2021)
Calls of active or inactive are those of the source. The rule behind the calls is not given here.

How the values were obtained:
HEK293 = assay: Anticancer activity against human HEK293 cells assessed as growth inhibition incubated for 48 hrs by MTT assay; type: cell-based; conditions: HEK293, 48 h
HepG2 [1] = assay: Cell cycle arrest in human HepG2 cells assessed as accumulation at G0/G1 phase at 5 uM (reference value: 92.33%); type: functional
HepG2 [2] = assay: Cell cycle arrest in human HepG2 cells assessed as accumulation at SubG1 phase at 10 uM (reference value: 7.13%); type: functional
HepG2 [3] = assay: Cell cycle arrest in human HepG2 cells assessed as accumulation at G0/G1 phase at 10 uM (reference value: 92.33%); type: functional
U-87 MG = assay: Anticancer activity against human U-87 MG cells assessed as growth inhibition incubated for 48 hrs by MTT assay; type: functional, cell-based, U-87MG ATCC
HepG2 [4] = assay: Induction of apoptosis in human HepG2 cells assessed as early apoptotic cells at 10 uM incubated for 48 hrs by annexin V-FITC/propidium iodide (AV/PI) dual staining assay (reference value: 3.87%); type: functional
HepG2 [5] = assay: Induction of apoptosis in human HepG2 cells assessed as decrease in mitochondrial membrane potential at 5 to 10 uM incubated for 48 hrs by JC-1 staining based assay relative to control; type: functional, cell-based; conditions: dose 5-10 µM
HepG2 [6] = assay: Cell cycle arrest in human HepG2 cells assessed as accumulation at S phase at 5 uM (reference value: 4.66%); type: functional
HeLa = assay: Anticancer activity against human HeLa cells assessed as growth inhibition incubated for 48 hrs by MTT assay; type: functional, cell-based
NIH3T3 = assay: Anticancer activity against mouse NIH3T3 cells assessed as growth inhibition incubated for 48 hrs by MTT assay; type: cell-based; conditions: NIH3T3, 48 h
HepG2 [7] = assay: Induction of apoptosis in human HepG2 cells assessed as early apoptotic cells at 5 uM incubated for 48 hrs by annexin V-FITC/propidium iodide (AV/PI) dual staining assay (reference value: 3.87%); type: functional
HepG2 [8] = assay: Induction of apoptosis in human HepG2 cells assessed as late apoptotic cells at 5 uM incubated for 48 hrs by annexin V-FITC/propidium iodide (AV/PI) dual staining assay (reference value: 4.07%); type: functional
HepG2 [9] = assay: Cell cycle arrest in human HepG2 cells assessed as accumulation at G2/M phase at 5 uM (reference value: 3.72%); type: functional
A549 = assay: Anticancer activity against human A549 cells assessed as growth inhibition incubated for 48 hrs by MTT assay; type: functional, cell-based; conditions: A549, 48 h
DU-145 = assay: Anticancer activity against human DU-145 cells assessed as growth inhibition incubated for 48 hrs by MTT assay; type: functional, cell-based; conditions: DU-145, 48 h
HepG2 [10] = assay: Cell cycle arrest in human HepG2 cells assessed as accumulation at G2/M phase at 10 uM (reference value: 3.72%); type: functional
HepG2 [11] = assay: Induction of apoptosis in human HepG2 cells assessed as necrotic cells at 5 uM incubated for 48 hrs by annexin V-FITC/propidium iodide (AV/PI) dual staining assay (reference value: 1.06%); type: functional
HepG2 [12] = assay: Induction of apoptosis in human HepG2 cells assessed as nuclear condensation at 5 to 10 uM incubated for 48 hrs by Hoechst staining based assay relative to control; type: functional, cell-based; conditions: dose 5-10 µM
MDA-MB-231 = assay: Anticancer activity against human MDA-MB-231 cells assessed as growth inhibition incubated for 48 hrs by MTT assay; type: functional, cell-based; conditions: MDA-MB-231, 48 h
HepG2 [13] = assay: Cell cycle arrest in human HepG2 cells assessed as accumulation at S phase at 10 uM (reference value: 4.66%); type: functional
HepG2 [14] = assay: Induction of apoptosis in human HepG2 cells assessed as live cells at 5 uM incubated for 48 hrs by annexin V-FITC/propidium iodide (AV/PI) dual staining assay (reference value: 91.01%); type: functional
HepG2 [15] = assay: Induction of apoptosis in human HepG2 cells assessed as live cells at 10 uM incubated for 48 hrs by annexin V-FITC/propidium iodide (AV/PI) dual staining assay (reference value: 91.01%); type: functional
SK-MEL-28 = assay: Anticancer activity against human SK-MEL-28 cells assessed as growth inhibition incubated for 48 hrs by MTT assay; type: functional, cell-based; conditions: SK-MEL-28, 48 h
HepG2 [16] = assay: Cell cycle arrest in human HepG2 cells assessed as accumulation at SubG1 phase at 5 uM (reference value: 7.13%); type: functional
HepG2 [17] = assay: Anticancer activity against human HepG2 cells assessed as growth inhibition incubated for 48 hrs by MTT assay; type: functional, cell-based; conditions: HepG2, 48 h
HepG2 [18] = assay: Induction of apoptosis in human HepG2 cells assessed as late apoptotic cells at 10 uM incubated for 48 hrs by annexin V-FITC/propidium iodide (AV/PI) dual staining assay (reference value: 4.07%); type: functional
HepG2 [19] = assay: Induction of apoptosis in human HepG2 cells assessed as necrotic cells at 10 uM incubated for 48 hrs by annexin V-FITC/propidium iodide (AV/PI) dual staining assay (reference value: 1.06%); type: functional

CSc1ccc(-c2nc3ccccn3c2Sc2ccccc2)cc1 was tested, and the IC50 (HEK293) was over 100 µM, the Activity (HepG2 [1]) was 83.03% and the Activity (HepG2 [2]) was 1.57%. The Activity (HepG2 [3]) was 63.48%, the IC50 (U-87 MG) was 26.9 µM and the Activity (HepG2 [4]) was 27.63%. For the same compound, the Activity (HepG2 [5]) was “Active”, the Activity (HepG2 [6]) was 0.56% and the IC50 (HeLa) was 30 µM. For the same compound, the IC50 (NIH3T3) was over 100 µM, the Activity (HepG2 [7]) was 18.94% and the Activity (HepG2 [8]) was 15.17%. The Activity (HepG2 [9]) was 10.85%, the IC50 (A549) was 13.6 µM and the IC50 (DU-145) was 52.1 µM. The Activity (HepG2 [10]) was 34.97%, the Activity (HepG2 [11]) was 0.28% and the Activity (HepG2 [12]) was “Active”. The IC50 (MDA-MB-231) was 23.5 µM, the Activity (HepG2 [13]) was 1.07% and the Activity (HepG2 [14]) was 65.61%. For the same compound, the Activity (HepG2 [15]) was 48.22%, the IC50 (SK-MEL-28) was 67.7 µM and the Activity (HepG2 [16]) was 11.43%. The IC50 (HepG2 [17]) was 7.6 µM, the Activity (HepG2 [18]) was 23.93% and the Activity (HepG2 [19]) was 0.22%.
